19 compounds from PubChem BioAssay AID274 (DTP/NCI, 2004) can be followed below.

Each structure is given as a SMILES string. Several values for one entry are separate records, joined by “and”; a condition that tells them apart may be missing. Identical values can stand only once. Toxic doses and inconclusive results are not listed.

This assay has as its system BDF1 mice, Lewis lung carcinoma iv, survival T/C. Description: NCI In Vivo Anticancer Drug Screen. Data for tumor model Lewis Lung Carcinoma (intravenous) in B6D2F1 (BDF1) mice. The following applies: endpoint: median survival time, higher = longer survival. The method, then: The antitumor activity of compounds was measured in mice bearing transplantable tumors. Survival or tumor size were measured and the results are expressed as the measurement made in the treated group (T) divided by the measurement made in the vehicle treated control group (C). The tumor model used in this assay is Lewis Lung Carcinoma (intravenous) in B6D2F1 (BDF1) mice

Setting [1] is: dose: 3.12 mg/kg/injection, schedule: Q01DX009 (ip), vehicle: Klucel (hydroxypropylcellulose) (HPC).
The mark [2] stands for this setting: dose: 6.25 mg/kg/injection, schedule: Q01DX009 (ip), vehicle: Klucel (hydroxypropylcellulose) (HPC).
[3] abbreviates: dose: 12.5 mg/kg/injection, schedule: Q01DX009 (ip), vehicle: Klucel (hydroxypropylcellulose) (HPC).
[4] abbreviates: dose: 25.0 mg/kg/injection, schedule: Q01DX009 (ip), vehicle: Klucel (hydroxypropylcellulose) (HPC).
[5] abbreviates: dose: 3.12 mg/kg/injection, schedule: Q01DX009 (ip), vehicle: saline.
The mark [6] stands for this setting: dose: 6.25 mg/kg/injection, schedule: Q01DX009 (ip), vehicle: saline.
The mark [7] stands for this setting: dose: 12.5 mg/kg/injection, schedule: Q01DX009 (ip), vehicle: saline.
Setting [8] is: dose: 6.25 mg/kg/injection, schedule: Q01DX009 (ip), vehicle: saline with Tween-80.
Setting [9] is: dose: 12.5 mg/kg/injection, schedule: Q01DX009 (ip), vehicle: saline with Tween-80.
Where [10] appears, read: dose: 1.56 mg/kg/injection, schedule: Q01DX009 (ip), vehicle: saline with Tween-80.
The mark [11] stands for this setting: dose: 3.12 mg/kg/injection, schedule: Q01DX009 (ip), vehicle: saline with Tween-80.

In the case of `CNC(=O)c1cccc2c(Nc3ccc(NS(C)(=O)=O)cc3OC)c3cccc(C)c3nc12`, the T/C (dose: 0.39 mg/kg/injection, schedule: Q01DX009 (ip), vehicle: water) is 100 % of control; the T/C (dose: 1.56 mg/kg/injection, schedule: Q01DX009 (ip), vehicle: water) is 112 % of control; the T/C (dose: 3.12 mg/kg/injection, schedule: Q01DX009 (ip), vehicle: water) is 89 % of control.

As for `COc1ccc(C(N)=O)cc1N=NN(C)C`, the T/C reads like this: under setting [1], 95 % of control; under setting [2], 98 % of control; under setting [3], 118 % of control; under setting [4], 110 % of control.

Consider `[Cl][Sn]([c]1ccccc1)[c]1ccccc1`, for which the T/C is 104 % of control under setting [5], 97 % of control under setting [6] and 98 % of control under setting [7].

Turning to `Nc1ncn(C2OC(CO)C(O)C2O)c(=O)n1` (stereo not drawn), the T/C is 100 % of control (dose: 0.37 mg/kg/injection, schedule: Q01DX009 (ip), vehicle: saline); 113 % of control and 119 % of control (dose: 0.75 mg/kg/injection, schedule: Q01DX009 (ip), vehicle: saline); 109 % of control and 115 % of control (dose: 1.5 mg/kg/injection, schedule: Q01DX009 (ip), vehicle: saline); 115 % of control (dose: 12.5 mg/kg/injection, schedule: Q01DX009 (ip), vehicle: suspension in saline); 124 % of control (dose: 25.0 mg/kg/injection, schedule: Q01DX009 (ip), vehicle: suspension in saline); 175 % of control (dose: 400.0 mg/kg/injection, schedule: Q01DX009 (ip), vehicle: suspension in saline).

Regarding `C=C1C(=O)OCC1(C(=O)OCC)C(=O)OCC`, the T/C (dose: 4.0 mg/kg/injection, schedule: Q01DX009 (ip), vehicle: saline with Tween-80) is 114 % of control and the T/C (dose: 8.0 mg/kg/injection, schedule: Q01DX009 (ip), vehicle: saline with Tween-80) is 120 % of control.

In the case of `CCCNC1=C(C)C(=O)C2=C(C1=O)[C@H](COC(N)=O)[C@]1(OC)[C@@H]3N[C@@H]3CN21`, the T/C was 104 % of control (dose: 0.39 mg/kg/injection, schedule: Q01DX009 (ip), vehicle: saline); 100 % of control (dose: 0.78 mg/kg/injection, schedule: Q01DX009 (ip), vehicle: saline); 102 % of control (dose: 1.56 mg/kg/injection, schedule: Q01DX009 (ip), vehicle: saline); 108 % of control under setting [5].

On to `O.O.[NH-]C1CCCCC1[NH-].[Pt+2]` (stereo not drawn), for which the T/C runs as follows: (dose: 0.31 mg/kg/injection, schedule: Q01DX009 (ip), vehicle: dextrose) 95 % of control; (dose: 2.5 mg/kg/injection, schedule: Q01DX009 (ip), vehicle: dextrose) 99 % of control; (dose: 5.0 mg/kg/injection, schedule: Q01DX009 (ip), vehicle: dextrose) 112 % of control; (dose: 10.0 mg/kg/injection, schedule: Q01DX009 (ip), vehicle: dextrose) 117 % of control.

On to `COc1ccc2[nH]c3ccc4cc[n+](CCN5CCC(C6CCN(CC[n+]7ccc8ccc9[nH]c%10ccc(OC)cc%10c9c8c7)CC6)CC5)cc4c3c2c1`, for which the T/C is 98 % of control under setting [3] and 114 % of control under setting [4].

Take `O=NN(CCCl)C(=O)NC1[C@H](O)CCC[C@@H]1O` (stereo partly drawn): the T/C reads like this: (dose: 0.62 mg/kg/injection, schedule: Q01DX009 (ip), vehicle: saline) 105 % of control; (dose: 1.25 mg/kg/injection, schedule: Q01DX009 (ip), vehicle: saline) 120 % of control; (dose: 2.5 mg/kg/injection, schedule: Q01DX009 (ip), vehicle: saline) 159 % of control; (dose: 5.0 mg/kg/injection, schedule: Q01DX009 (ip), vehicle: saline) 278 % of control.

Turning to `C1CN1c1nc(N2CC2)nc(N2CC2)n1`, the T/C by setting is: (dose: 0.06 mg/kg/injection, schedule: Q01DX009 (ip), vehicle: suspension in saline) 105 % of control; (dose: 0.12 mg/kg/injection, schedule: Q01DX009 (ip), vehicle: suspension in saline) 101 % of control; (dose: 0.25 mg/kg/injection, schedule: Q01DX009 (ip), vehicle: suspension in saline) 112 % of control.

Turning to `C[C@@]12C(=O)OC(=O)[C@]1(C)[C@H]1CC[C@@H]2O1`, the T/C reads like this: (dose: 0.06 mg/kg/injection, schedule: Q01DX009 (ip), vehicle: Klucel (hydroxypropylcellulose) (HPC)) 104 % of control; (dose: 0.12 mg/kg/injection, schedule: Q01DX009 (ip), vehicle: Klucel (hydroxypropylcellulose) (HPC)) 108 % of control; (dose: 0.25 mg/kg/injection, schedule: Q01DX009 (ip), vehicle: Klucel (hydroxypropylcellulose) (HPC)) 95 % of control; (dose: 0.5 mg/kg/injection, schedule: Q01DX009 (ip), vehicle: Klucel (hydroxypropylcellulose) (HPC)) 108 % of control; (dose: 1.0 mg/kg/injection, schedule: Q01DX009 (ip), vehicle: Klucel (hydroxypropylcellulose) (HPC)) 97 % of control.

Take `O=C(O)CC(=O)O.[NH-]C1CCCCC1[NH-].[Pt+2]` (stereo not drawn): the T/C was 117 % of control (dose: 12.5 mg/kg/injection, schedule: Q01DX009 (ip), vehicle: dextrose) and 88 % of control (dose: 25.0 mg/kg/injection, schedule: Q01DX009 (ip), vehicle: dextrose).

For the compound `CN=C(N)N/N=C(\c1ccccc1)c1ccc(Br)cc1`, the T/C is 95 % of control (dose: 1.5 mg/kg/injection, schedule: Q01DX009 (ip), vehicle: saline with Tween-80); 98 % of control (dose: 3.0 mg/kg/injection, schedule: Q01DX009 (ip), vehicle: saline with Tween-80); 99 % of control under setting [8]; 105 % of control under setting [9].

With `COc1cc(O)c2c(O)c3c(c4c2c1[C@]1(C4)C(C)=CCCC1(C)C)[C@H](O)[C@@]1(O)CC(=O)C(C(N)=O)=C(O)[C@@]1(O)C3=O`, the T/C is 112 % of control under setting [10]; 100 % of control (dose: 3.13 mg/kg/injection, schedule: Q01DX009 (ip), vehicle: saline with Tween-80); 103 % of control under setting [8]; 102 % of control under setting [9].

For the compound `COc1cc2cc[n+](C)c(Cc3ccccc3)c2cc1OC`, the T/C by setting is: under setting [11], 285 % of control; under setting [5], 106 % of control; under setting [8], 91 % of control; under setting [6], 108 % of control; under setting [9], 161 % of control; under setting [7], 116 % of control. Besides, the T/C by setting is: (dose: 25.0 mg/kg/injection, schedule: Q01DX009 (ip), vehicle: saline with Tween-80) 95 % of control; (dose: 25.0 mg/kg/injection, schedule: Q01DX009 (ip), vehicle: saline) 120 % of control.

Turning to `CC(C)C(=O)OCC1OC(n2cnc3c(=S)nc(N)[nH]c32)C(OC(=O)C(C)C)C1OC(=O)C(C)C` (stereo not drawn), the T/C was 97 % of control under setting [1] and 90 % of control under setting [2].

As for `COc1cc2oc(=O)ccc2cc1[C@@H]1OC(=O)C2(C)O[C@@H]12` (stereo partly drawn), the T/C is, setting by setting: (dose: 0.31 mg/kg/injection, schedule: Q01DX009 (ip), vehicle: water) 96 % of control; (dose: 0.62 mg/kg/injection, schedule: Q01DX009 (ip), vehicle: water) 104 % of control; (dose: 1.25 mg/kg/injection, schedule: Q01DX009 (ip), vehicle: water) 101 % of control; (dose: 2.5 mg/kg/injection, schedule: Q01DX009 (ip), vehicle: water) 101 % of control; (dose: 5.0 mg/kg/injection, schedule: Q01DX009 (ip), vehicle: water) 100 % of control.

As for `O=C1c2c(O)ccc(O)c2C(=O)c2c(NCCNCCO)ccc(NCCNCCO)c21`, the T/C by setting is: (dose: 1.0 mg/kg/injection, schedule: Q01DX005 (ip), vehicle: saline with Tween-80) 276 % of control; (dose: 2.0 mg/kg/injection, schedule: Q01DX005 (ip), vehicle: saline with Tween-80) 115 % of control; (dose: 4.0 mg/kg/injection, schedule: Q01DX005 (ip), vehicle: saline with Tween-80) 116 % of control.

`Cc1cc(NCCCCCCCNc2cc(C)nc3cc(N)ccc23)c2ccc(N)cc2n1`: the T/C is 100 % of control (dose: 0.78 mg/kg/injection, schedule: Q01DX009 (ip), vehicle: saline with Tween-80); 102 % of control under setting [10]; 102 % of control under setting [11]; 110 % of control under setting [8]; 96 % of control under setting [9].
